Values quoted from earlier work in patent US20070219192A1, “Certain chemical entities, compositions, and methods” (priority 2005, published 2007).

tested on: A549 cells; conditions: data provided by National Cancer Institute, Developmental Therapeutic Program

| Structure (SMILES) | GI50 |
| --- | --- |
| O=c1[nH]cc(F)c(=O)[nH]1 [5-fluorouracil] | 1000 nM |
| COc1cccc2c1C(=O)c1c(O)c3c(c(O)c1C2=O)C[C@@](O)(C(=O)CO)C[C@@H]3O[C@H]1C[C@H](N)[C@H](O)[C@H](C)O1 [doxorubicin] | 63 nM |
| NC(=O)NO [hydroxyurea] | 500000 nM |
| CC(=O)O[C@H]1C(=O)[C@@]2(C)[C@H]([C@H](OC(=O)c3ccccc3)[C@]3(O)C[C@H](OC(=O)[C@H](O)[C@@H](NC(=O)c4ccccc4)c4ccccc4)C(C)=C1C3(C)C)[C@]1(OC(C)=O)CO[C@@H]1C[C@@H]2O [paclitaxel] | 4 nM |
